In US20070179110A1, “EXPRESSION OF IMMUNOGENIC SUBSTANCES” (Mayo Foundation for Medical Education and Research, priority 1997, published 2007):

How the values were obtained:
chTCR gene expression [1] = assay: Regulation of surface chTCR expression by tetracyclines in JLAV12S (pLAV12-transfected Jurkat) cells, FACS; assay type: cell-based, human; details: for surface chTCRs down-regulated: 1 μg/ml; for surface chTCRs down-regulated / concentration for maximal repression: 48 hours
Protocol: (§1) The Jurkat T cell line (clone E6-l) was maintained in RPMI 1640 supplemented with 10% foetal calf serum (FCS), 2 mM L-glutamine, 100 U/ml penicillin, 100 μg/ml streptomycin and 25 mM HEPES buffer (all from GIBCO-BRL, Gaithersburg, Md.), referred to as complete medium (CM). To generate stable cell lines Jurkat cells were transfected with linearized plasmid DNA (10 μg) by electroporation, at […] and 960 μF, as described previously (13). Transfectants were selected in CM supplemented with 0.4 mg/ml of hygromycin B (Calbiochem, San Diego, Calif.). Stable cell lines were established after 3-4 weeks and analyzed by FACS for expression of the chTCR. To select a population of chTCR ζ expressing cells, stable Jurkat cells transfected with the linearized pLAV12 or pCEP4.aNIP.TCR ζ derived plasmid fragments were FACS sorted (see below). The resultant populations were cloned twice by limiting dilution and screened for protein expression by flow cytometry.
(§2) Expression of cell surface proteins was performed by standard direct immunofluorescence as described (14) using saturating amounts of FITC-conjugated antibodies. Dead cells were excluded from analysis using a combination of propidium iodide and forward light scatter. Appropriate FITC isotype-matched irrelevant Abs were used in all experiments. The samples were analysed with a FACScan® (Becton Dickinson, Mountain View, Calif.). A minimum of 20,000 cells was analysed for each sample. Subsequent re-analysis of data was performed using the CELLQuest software (version 1.2) (Becton Dickinson). Additionally, cells stained with FITC-conjugated goat antisera to mouse λ light chain were sorted under sterile conditions on a cell sorter (FACScalibur, Becton Dickinson).
To study the time-course of inactivation of gene expression, JLAV12S cells were analysed at different times after addition of the antibiotics at 1 μg/ml (FIG. 2B).
(§3) A dose-response curve of gene repression was determined using different concentrations of Tet or Dox. After 48 hours of treatment, the cells were harvested and the expression of the chTCR was studied by FACS analysis.
(§4) Stably transfected uncloned (JLAV12S, left hand column) and cloned (1F5, middle column; and 2E11, right hand column) Jurkat cell populations were cultured for 48 hours in the presence of different concentrations (0 ng/ml top row, 0.1 ng/ml second row, 1 ng/ml third row, and 10 ng/ml bottom row) of Tet (broken line) or Dox (solid line) and the surface expression of scFv-TCR ζ molecules was examined. Negative controls (FITC-conjugated goat antisera to mouse IgG) are overlaid (filled curve). The fluorescence channel number is plotted along the x axis, and the y axis represents the relative cell number.

JN3S cells = assay: IL-2 production of JN3S cells stimulated with iNIP10-BSA; assay type: cell-based, human; details: doxycycline at a concentration of less than 1 μg/ml
Protocol: (§5) Subsequently the cells were washed, counted and stimulated (10^5/well) in triplicate with plastic-immobilised NIP10-BSA conjugates (iNIP10-BSA) or plastic immobilised anti-CD3E mAb (ianti-CD3) in fresh CM alone or in the presence of the drugs (12). The plates were incubated at 37° C. in 5% CO2. After 20 hours supernatants were harvested and assayed for IL-2 activity using an ELISA kit (Genzyme Diagnostics, Cambridge, Mass.).
The inventors next determined whether tetracycline-mediated suppression of the chTCR could induce a reversible state of antigen unresponsiveness in the transfected Jurkat cells. JLAV12S and JN3S cells were preincubated for 48 hours in increasing concentrations of Dox and Tet and then stimulated with immobilized NIP-BSA, following which their IL-2 production was measured.
FIGS. 5A and 5B are bar charts showing IL-2 production (in pg/ml) by transfected JLAV12S (5A) or JN3S (5B) cells stimulated with iNIP10-BSA in the absence or presence of Tet or Dox. Cells were preincubated for a 48 hours period in the absence or presence of the drugs (at the indicated concentration in ng/ml), washed and stimulated (10^5/well) with plastic immobilised NIP10-BSA conjugates (50 μg/ml) in fresh CM alone (solid bar) or in the presence of Tet (shaded bars) or Dox (open bars) at the indicated concentrations. One of two similar experiments is shown.

chTCR gene expression [2] = assay: Regulation of surface chTCR expression in cloned pLAV12 transfectants (1E5/1F5 and 2E11), FACS; assay type: cell-based, human
Protocol: as §1, §2
The selected population of pLAV12 transfectants (JLAV12S) was then cloned by limiting dilution and two subclones expressing the chTCR at low (2E11) and intermediate (IF5) levels (FIG. 3) were selected for further study.
as §3, §4

JLAV12S and JN3S cells = details: 1 μg/ml, 48 hours; data not shown
Jurkat cells = assay: Anti-CD3ε induced IL-2 secretion of Jurkat cells (IL-2 release assay); assay type: cell-based; details: Homo sapiens, 1 μg/ml, not shown
Protocol: as §5

Row | Compound | surface chTCRs down-regulated (chTCR gene expression [1]; JLAV12S cells) | concentration for maximal repression (chTCR gene expression [1]; all the analysed cell lines) | concentration of maximum repression (chTCR gene expression [1]; in our system) | effect on IL-2 production upon stimulation with iNIP10-BSA conjugates (JN3S cells) | level of chTCR as % of its maximal expression (chTCR gene expression [2]; 1E5 clone) | level of chTCR as % of its maximal expression (chTCR gene expression [2]; 2E11 clone) | changes in cell viability (JLAV12S and JN3S cells) | concentration for maximal repression (chTCR gene expression [1]; JLAV12S cells) | inhibition at 1 µg/mL (Jurkat cells) | concentration at which expression of chTCRs was maximally repressed (chTCR gene expression [2]; clonal populations 1E5 and 2E11, 48 hours)
1 | CN(C)[C@@H]1C(O)=C(C(N)=O)C(=O)[C@@]2(O)C(O)=C3C(=O)c4c(O)cccc4[C@@](C)(O)[C@H]3C[C@@H]12 [tetracycline] | 90% | greater than or equal to 10 ng/ml | 10 ng/mL | no inhibitory effect | about 10% | ~20% |  |  |  | 
2 | C[C@H]1c2cccc(O)c2C(=O)C2=C(O)[C@]3(O)C(=O)C(C(N)=O)=C(O)[C@@H](N(C)C)[C@@H]3[C@@H](O)[C@@H]21 [doxycycline] | 90% |  |  | no inhibitory effect | about 10% | ~20% | No changes | greater than or equal to 1 ng/ml | 25% | 100 pg/mL
